According to ChEMBL document CHEMBL4033744, “Synthesis and biological evaluation of steroidal derivatives bearing a small ring as vitamin D receptor agonists” (Bioorg Med Chem Lett, 2017):
Active and inactive are the calls of the source. The calls are words filed in the database; no cut-off is given here.

How the values were obtained:
Format in all cases: cell-based
[1] = target: T1, Vitamin D3 receptor (Homo sapiens) (UniProt P11473); test: Agonist activity at vitamin D receptor (unknown origin) expressed in HEK293 cells co-expressing pCMX-RXRalpha and pCMX-beta-galactosidase assessed as induction of receptor transactivation incubated for 16 to 24 hrs by luciferase reporter gene assay relative to 3-keto-LCA
T1 sequence (whole entry): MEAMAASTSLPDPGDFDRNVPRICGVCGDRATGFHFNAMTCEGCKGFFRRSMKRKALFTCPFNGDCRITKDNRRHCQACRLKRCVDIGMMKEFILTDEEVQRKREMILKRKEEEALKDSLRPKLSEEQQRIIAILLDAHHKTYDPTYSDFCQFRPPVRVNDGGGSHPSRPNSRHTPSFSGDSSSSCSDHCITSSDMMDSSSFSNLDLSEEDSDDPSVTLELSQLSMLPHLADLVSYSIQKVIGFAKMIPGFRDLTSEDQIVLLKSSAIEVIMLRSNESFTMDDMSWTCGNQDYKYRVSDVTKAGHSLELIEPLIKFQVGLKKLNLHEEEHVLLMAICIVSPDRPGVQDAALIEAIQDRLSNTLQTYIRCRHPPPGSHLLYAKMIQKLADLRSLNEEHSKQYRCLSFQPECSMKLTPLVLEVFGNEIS

[2] = target: T1, Vitamin D3 receptor (Homo sapiens); test: (§1) Agonist activity at vitamin D receptor (unknown origin) expressed in HEK293 cells co-expressing pCMX-RXRalpha and pCMX-beta-galactosidase assessed as induction of receptor transactivation incubated for 16 to 24 hrs by luciferase reporter gene assay
Vitamin D3 receptor = target: T2, Vitamin D3 receptor (Homo sapiens, UniProt P11473); test: as §1
T2 sequence (P11473 whole entry): T1 sequence (whole entry)

| Activity [1] | EC50 (Vitamin D3 receptor) | Structure (SMILES) | Activity [2] |
| --- | --- | --- | --- |
| Active |  | CC(C)(O)CCC[C@H]1C[C@@]12CC[C@H]1[C@@H]3CCc4cc(O)ccc4[C@H]3CC[C@@]12C |  |
| Active | 4.1 µM | CC(C)(O)CCC[C@@H]1C[C@@H]2C[C@H]3[C@@H]4CCc5cc(O)ccc5[C@H]4CC[C@]3(C)[C@]12O |  |
| Active |  | CC(C)(O)CCC[C@H]1C[C@@H]2C[C@H]3[C@@H]4CCc5cc(O)ccc5[C@H]4CC[C@]3(C)[C@@]21O |  |
| inactive |  | C[C@]12CCC(=O)C[C@H]1CC[C@@H]1[C@@H]2CC[C@@]2(C)[C@H]1CC[C@@]21C[C@H]1CCC(=O)O |  |
| Active | 3.7 µM | CC(C)(O)CCC[C@@H]1C[C@@]12CC[C@H]1[C@@H]3CCc4cc(O)ccc4[C@H]3CC[C@@]12C |  |
|  | 0.85 µM | C[C@H](CCCC(C)(C)O)[C@H]1CC[C@H]2[C@@H]3CCc4cc(O)ccc4[C@H]3CC[C@]12C |  |

Further lines, the compound ahead of its results:

| Structure (SMILES) | Activity [1] | EC50 (Vitamin D3 receptor) | Activity [2] |
| --- | --- | --- | --- |
| C[C@]12CCC(=O)C[C@H]1CC[C@@H]1[C@@H]2CC[C@@]2(C)[C@H]1CC[C@@]21C[C@@H]1CCC(=O)O | inactive |  |  |
| C[C@]12CCC(=O)C[C@H]1CC[C@@H]1[C@@H]2CC[C@@]2(C)[C@H]1C[C@H]1C[C@@H](CCC(=O)O)[C@]12O | inactive |  |  |
| C[C@H](CCC(=O)O)[C@H]1CC[C@H]2[C@@H]3CC[C@@H]4CC(=O)CC[C@]4(C)[C@H]3CC[C@]12C |  |  | Active |
| C[C@]12CCC(=O)C[C@H]1CC[C@@H]1[C@@H]2CC[C@@]2(C)[C@H]1C[C@H]1C[C@H](CCC(=O)O)[C@]12O | inactive |  |  |
